Values joined by “and” are separate entries in the source; they are usually repeats but may differ in a detail not shown here. Equal values may be shown once.
Key:
[1] = tested on: PMA-induced neutrophils influx in mice ear; test: PMA-induced ear edema in mice (myeloperoxidase); type: in vivo; conditions: for Myeloperoxidase (treated-untreated ear) ± S.E.M.: 24 hours after PMA
Description: (§1) Female albino mice (Han:NMRI) obtained form Harlan and weighing about 20-25 g were used. The animals were provided with standardized pellet diet (Altromin 8013) and had tap water freely available. The animals were accommodated in a climate room with a 12-hour light/dark cycle and kept in groups.
(§2) All test compounds were administered orally (0.2 ml/10 g body weight (bw) ) in a dose of 100 mg/kg p.o. The compounds were “dissolved” in 0.2% hydroxypropylmethylcellulose and olive oil mixed 1:1 (v/v).
Mice were lightly anaesthetized by ether and 50 ng PMA (5 μl) were applied to each side of the left ear. […] The animals were sacrificed by ether 24 hours later, and a biopsy (diameter 8 mm) was punched out from both ears to assess an increase of neutrophils in the left ear compared with the right ear. Tissue samples were homogenized in 1 ml 0.5% HTAB (Hexadecyl-trimethyl-ammonium-bromide; Sigma H-5882; dissolved in 0.05 M phosphate buffer, pH 6.0) using a tissue homogenizer (IKA-Ultraturrax T5; Janke & Kunkel, Staufen/Breisgau) at 30000 RPM for 15 seconds under cooling. After centrifugation (16000 g, 5 min) the supernatants were frozen until processing for myeloperoxidase (MPO). Determination in the supernatants for MPO, a neutrophil marker enzyme, served as a quantitative index for the neutrophil accumulation. MPO was determined spectrophotometrically at 450 nm using a microplate version of the method of Bradley (1982) and microplate reader (Vmax; Molecular Devices, Palo Alto) suitable for kinetic measurements. The values are expressed as increase in milli optical densities per min (m O.D./min) (Table 1a and b).

[2] = tested on: tyrosine aminotransferase (TAT) in mice liver; test: TAT induction in mice liver; type: in vivo; conditions: for TAT-induction ± S.E.M.: mice liver, 8 hours after administration
Description: as §1, §2
Eight hours after compounds were administered the animals were killed and a punch (diameter 8 mm) was taken from the liver and immediately frozen in liquid nitrogen. The weighed liver punches were thawed for 3 minutes and homogenized after the addition 1 ml of phosphate buffer (pH 7.6) using a tissue homogenizer as described above. After centrifugation the supernatants were frozen at −20° C. until processing. For processing the samples were thawed and protein was determined using a kit employing 96 well microtiterplates commercially available from Fa. Pierce (No 23225). The activity of tyrosineaminotransferase (TAT) was determined in the supernatant, which was diluted 1:100 in phosphate buffer. The reaction is started by the addition of tyrosine in pyrodoxal-5-phosphate and α ketoglutaric acid at pH 7.6 and incubated for 30 minutes at 37° C. The reaction is stopped by the addition of 10 M KOH and a further incubation of 30 minutes is allowed for the formation of p-hydroxy-benzylaldehyde, which can be measured at 492 nm using a microplate reader. The values (optical densities) are calculated with respect to the protein concentration (O.D./mg protein) (Table 1a and b).

[3] = molecular target: recombinant human GR (Homo sapiens, UniProt P04150); test: GR Competitive Binding Assay; conditions: after correction for compound determined to be in solution by HPLC analysis; read-out: IC50, competition with [6,7-3H(N)]-dexamethasone for binding to GR
Description: All procedures were performed at 4° C.
Test compounds were dissolved to 1 mM in neat DMSO and then further diluted to 10×assay concentration in assay buffer supplemented with 10% v/v DMSO.

[4] = tested on: ICAM-promoter in HeLa cells; test: Inhibition of TNF-α induced activation of the ICAM-promoter (luciferase) in HeLa cells; type: cell-based, human; conditions: 20 ng/ml TNF-α
Description: HeLa cells were stably co-transfected with a construct containing a 1.3 kb fragment of the human ICAM-promoter (−1353 to −9 relative to the transcription start site, cloned in front of the luciferase gene and the pcDNA3.1 plasmid (Invitrogen) which constitutively express the resistance for the antibioticum geneticin. Clones with best induction of the ICAM-promoter were selected and used for further experiments. Cells were transferred to 96 well plates (20,000 cells/100 μl/well) in DMEM medium supplemented with 3% CCS. On the following day the activation of the ICAM-promoter was induced by addition of 20 ng/ml recombinant TNF-α (R&D System, Cat. No. 210-TA). […] Control cells were treated with DMSO only. Twenty four hours later the cells were lysed with cell lysis reagent (Promega, Cat. No. E1531), luciferase assay reagent (Promega, Cat. No. E1501) was added and flash luminescence was measured using a BMG luminometer (FIG. 6a).
The steroidal not dissociated GR/PR antagonist RU486 was used as control (FIG. 6b).

[5] = tested on: croton-oil induced ear edema, carrageenan-induced paw edema; systemic side-effects of glucocorticoids; test: In vivo co-administration with dexamethasone or prednisolone in inflammation models
[6] = tested on: tyrosine aminotransferase (TAT) in rat hepatoma cells; test: Induction of tyrosine aminotransferase (TAT) in H4-II-E-C3 rat hepatoma cells; type: cell-based
Description: H4-II-E-C3 rat hepatoma cells were incubated overnight in 96 well plates (20,000 cells/200 μl/well) in EMEM medium containing 10% heat inactivated FBS (fetal bovine serum). […] Control cells were treated with 0.1% DMSO. After 18 hours, the cells were lysed in a buffer containing 0.1% Triton X-100 and the TAT activity was measured in a photometric assay using tyrosine and -keto g lutarate as substrates (FIG. 3a).
The steroidal not dissociated GR/PR antagonist RU486 was used as control (FIG. 3b).

[7] = tested on: LPS-induced IL-8 secretion in U-937 cells; test: GR-mediated inhibition of LPS-induced IL-8 secretion in U-937 cells; type: cell-based, human; conditions: 1 μg/ml LPS
Description: U-937 cells were incubated for 4 days in RPM11640 medium containing 10% CCS (charcoal treated calf serum). […] Control cells were treated with 0.1% DMSO.
Eighteen hours later the IL-8 concentration in the cell supernatant was measured by ELISA, using the “OptEIA human IL-8 set” (Pharmingen, Cat.No. 2654KI) (FIG. 5a).
The steroidal not dissociated GR/PR antagonist RU486 was used as control (FIG. 5b).

[8] = tested on: MMTV-(mouse mammary tumor virus) promoter in HeLa cells; test: Stimulation of MMTV promoter (luciferase) in HeLa cells; type: cell-based
Description: HeLa cells stably co-transfected with the pHHLuc-construct containing a fragment of the MMTV-LTR (−200 to +100 relative to the transcription start site) cloned in front of the luciferase gene and the pcDNA3.1 plasmid (Invitrogen) constitutively expressing the resistance for the antibioticum geneticin. Clones with best induction of the MMTV-promoter were selected and used for further experiments.
Cells were cultured overnight in DMEM medium w/o phenol red supplemented with 3% CCS (charcoal treated calf serum) and then transferred to 96 well plates (20,000 cells/100 μl/well). […] Control cells were treated with DMSO only. Twenty four hours later the cells were lysed with cell lysis reagent (Promega, Cat. No. E1531), luciferase assay reagent (Promega, Cat. No. E1501) was added and the flash luminescence was measured using a BMG luminometer (FIG. 4a).
The steroidal non-selective GR/PR antagonist RU486 was used as control (FIG. 4b).

[9] = co-administered with prednisolone, each 100 mg/kg p.o.

recombinant human GR, sequence (P04150 whole entry, other chains not shown): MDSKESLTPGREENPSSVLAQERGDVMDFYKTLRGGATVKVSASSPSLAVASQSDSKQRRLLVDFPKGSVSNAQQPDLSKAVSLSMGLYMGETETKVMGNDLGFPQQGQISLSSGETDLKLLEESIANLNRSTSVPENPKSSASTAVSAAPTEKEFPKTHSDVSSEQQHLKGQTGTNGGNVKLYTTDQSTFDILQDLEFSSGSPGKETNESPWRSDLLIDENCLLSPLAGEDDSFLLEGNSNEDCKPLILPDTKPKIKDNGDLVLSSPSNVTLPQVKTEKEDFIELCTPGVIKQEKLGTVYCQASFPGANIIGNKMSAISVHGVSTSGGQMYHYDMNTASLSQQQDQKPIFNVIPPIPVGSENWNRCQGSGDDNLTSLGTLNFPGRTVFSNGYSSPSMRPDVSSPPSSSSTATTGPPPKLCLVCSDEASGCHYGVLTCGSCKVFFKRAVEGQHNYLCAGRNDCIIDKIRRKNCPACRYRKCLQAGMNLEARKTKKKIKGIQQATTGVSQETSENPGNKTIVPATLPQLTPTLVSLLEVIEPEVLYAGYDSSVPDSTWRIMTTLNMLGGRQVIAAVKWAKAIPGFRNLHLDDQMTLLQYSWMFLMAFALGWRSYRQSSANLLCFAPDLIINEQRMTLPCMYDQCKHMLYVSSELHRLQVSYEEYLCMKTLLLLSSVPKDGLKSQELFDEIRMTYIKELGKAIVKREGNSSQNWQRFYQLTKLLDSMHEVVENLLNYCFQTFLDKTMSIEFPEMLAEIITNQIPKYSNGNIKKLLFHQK

Row | SMILES | Myeloperoxidase (treated-untreated ear) ± S.E.M. ([1]; compound alone 100 mg/kg p.o.) | TAT-induction ± S.E.M. ([2]; compound alone 100 mg/kg p.o.) | antagonism of the anti-inflammatory effect of prednisolone in the ear inflammation model ([1]; 100 mg/kg p.o.) | Myeloperoxidase (treated-untreated ear) ± S.E.M. [1, 9] [mO.D./min] | IC50 [3] [nM] | agonistic activity in inhibition of TNF-α induced activation of the ICAM-promoter ([4]; 24 hours) | antagonistic activity in inhibition of TNF-α induced activation of the ICAM-promoter ([4]; inhibited with 3e-8 mol/l dexamethasone) | systemic side-effect of the glucocorticoids (TAT in liver, blood glucose, free fatty acids level, renal function) ([5]; co-administration with dexamethasone or prednisolone) | anti-inflammatory activity of the glucocorticoid on co-administration ([5]; co-administration with dexamethasone or prednisolone in inflammation models) | antagonistic activity on dexamethasone-induced TAT-induction ([6]; rat hepatoma cells pre-stimulated with dexamethasone 3e-9 mol/l) | agonistic activity in induction of tyrosine aminotransferase (TAT) ([6]; rat hepatoma cells, 18 hours) | antagonism of the prednisolone-induced induction of tyrosine aminotransferase in liver ([2]; 100 mg/kg p.o., mice) | TAT-induction ± S.E.M. [2, 9] [O.D./mg protein] | agonistic activity in GR-mediated inhibition of LPS-induced IL-8 secretion ([7]; 18 hours) | antagonistic activity in GR-mediated inhibition of LPS-induced IL-8 secretion ([7]; IL-8 secretion inhibited with 3e-8 mol/l dexamethasone) | antagonistic activity in stimulation of MMTV promoter ([8]; HeLa cells pre-stimulated with 3e-8 mol/l dexamethasone) | agonistic activity in stimulation of MMTV promoter ([8]; HeLa cells, 24 hours)
1 | C[C@]12C=CC(=O)C=C1CC[C@@H]1[C@@H]2[C@@H](O)C[C@@]2(C)[C@H]1CC[C@]2(O)C(=O)CO [Prednisolone] | 48 ± 13 mO.D./min and 34 ± 17 mO.D./min | 17.75 ± 0.86 O.D./mg protein and 13.45 ± 0.93 O.D./mg protein |  |  |  |  |  |  |  |  |  |  |  |  |  |  | 
2 | COc1cc(C(=O)c2cccc(C)c2)c(Oc2c(Br)cc(CC(=O)O)cc2Br)cc1C(C)C [EXRS1370SE] | 443 ± 90 mO.D./min | 3.85 ± 0.43 O.D./mg protein | does not significantly antagonize | 140 ± 47 | 69 | no agonistic | no antagonistic activity | no/reduced a systemic side-effect | retain the anti-inflammatory activity of the glucocorticoid | shows antagonistic activity | does not show agonistic activity | can antagonize significantly | 12.00 ± 1.26 | no agonistic | no antagonistic activity | antagonistic activity | no agonistic
3 | CC#C[C@]1(O)CC[C@H]2[C@@H]3CCC4=CC(=O)CCC4=C3[C@@H](c3ccc(N(C)C)cc3)C[C@@]21C [Mifepristone, 11-[4-Dimethylamino]phenyl-17-hydroxy-17[1-propynyl]estra-4,9-dien-3-one] | 931 ± 261 mO.D./min | 4.62 ± 0.36 O.D./mg protein |  | 1565 ± 435 |  |  |  |  |  |  |  |  | 6.60 ± 0.38 |  |  |  | 
